The source of these data is EPA's aquatic toxicity sets.

This data set concerns Tetrahymena pyriformis. The data set can be described thus: 48 h IGC50 (-log10 mol/L); higher = more toxic.
As for `CCCCCC#CC(=O)OC`, the “48 h IGC50 (-log10 mol/L)” value was 4.04. Regarding `CCOC(=O)C=C(OCC)OCC`, the “48 h IGC50 (-log10 mol/L)” value stood at 2.35. Then `NC(=S)NCc1ccccc1`, with 3.66. Then `ClCCCc1ccccc1`, with 3.5; and `O=Cc1ccc(O)cc1Cl`, with 3.89; and `Nc1cc([N+](=O)[O-])cc(Cl)c1O`, with 4.2.

For `CC#CC(=O)OC`, the “48 h IGC50 (-log10 mol/L)” value amounted to 3.4.

As for `C#CCN(C)C`, the “48 h IGC50 (-log10 mol/L)” value was 1.85. Regarding `Oc1cccc(Cl)c1Cl`, the “48 h IGC50 (-log10 mol/L)” value was found to be 4.28. Then `CC(C)c1ccc(Br)cc1`, with 3.85; and `CCC(=O)c1ccccc1`, with 2.93. With `CCCCCCNC(N)=S`, the “48 h IGC50 (-log10 mol/L)” value is 3.86. Under `CCSc1ccccc1` stands 3.3; under `c1ccc(Cc2ccccn2)cc1`, 3.38. Then `CC(=O)c1cc(C)ccc1O`, with 3.31; and `CCCC(=O)OC`, with 1.75; and `CC(C)(C)c1cc(O)cc(C(C)(C)C)c1`, with 4.64. Then `C=CCC(C(=O)OCC)C(=O)OCC`, with 2.94; and `N#Cc1c(O)ccc(O)c1C#N`, with 2.56; and `CCCCCC#N`, with 2.62. `CC(O)Cc1ccccc1` (stereo unspecified): the “48 h IGC50 (-log10 mol/L)” value worked out at 2.38.

In the case of `CCC(C)C(=O)OC` (stereo unspecified), the “48 h IGC50 (-log10 mol/L)” value was 1.83. Then `OCCCBr`, with 2.07. Then `O=[N+]([O-])c1ccc2ccccc2c1O`, with 4.36; and `CC(C)(O)Cc1ccccc1`, with 2.59; and `OCc1cccc(F)c1`, with 2.61.

Take `CCCCC(C)O` (stereo unspecified): the “48 h IGC50 (-log10 mol/L)” value is 2.07.

Take `C=CC(=O)CC`: the “48 h IGC50 (-log10 mol/L)” value came out at 4.52. `CCCCCC(=O)OC`: the “48 h IGC50 (-log10 mol/L)” value was 2.44. Then `N#CCc1ccc(Cl)cc1`, with 3.66. Take `CC(O)(Cc1ccccc1)c1ccccc1` (stereo unspecified): the “48 h IGC50 (-log10 mol/L)” value amounted to 3.8. Then `CCCCCCCCCO`, with 3.85; and `O=[N+]([O-])c1cc(Cl)cc(Cl)c1O`, with 4.75. Then `COc1ccccc1Cl`, with 3.22; and `O=Cc1ccc(Br)cc1`, with 3.59; and `O=C(O)CCCCCBr`, with 3.03. Regarding `CCOC(=O)CCCBr`, the “48 h IGC50 (-log10 mol/L)” value came to 2.97.

`c1ccc(Cc2cccnc2)cc1`: the “48 h IGC50 (-log10 mol/L)” value was determined as 3.68. Consider `CC/C=C\CCO`, for which the “48 h IGC50 (-log10 mol/L)” value was 2.19.

`C=CS(=O)c1ccccc1` (stereo unspecified): the “48 h IGC50 (-log10 mol/L)” value was 3.16. Under `CC(C)(C)c1ccc(CO)cc1` stands 3.48; under `NC(=O)c1ccc(N)cc1`, 2.09.

`Cc1ccc(-c2ccccc2)cc1`: the “48 h IGC50 (-log10 mol/L)” value was 4.66. Under `CCC(O)(CC)C(C)(C)C` stands 2.83.

`CCCCNC`: the “48 h IGC50 (-log10 mol/L)” value came to 2.32.

With `O=C(O)CCCBr`, the “48 h IGC50 (-log10 mol/L)” value worked out at 2.23. Under `COc1cc(C=O)ccc1O` stands 2.97; under `Cc1cc(=O)[nH]cc1[N+](=O)[O-]`, 2.83; under `CCCC#CCC(O)CC` (stereo unspecified), 2.96. Under `O=C(O)c1cccc(Cl)c1Cl` stands 2.59. Then `C=CC(O)CC` (stereo unspecified), with 1.65. Turning to `Clc1ccc(Br)s1`, the “48 h IGC50 (-log10 mol/L)” value amounted to 3.75. Then `CC(C)COC=O`, with 1.69. Under `C=C(C)C(=O)OC` stands 1.78; under `CCC(O)CO` (stereo unspecified), 0.952. Under `OC1CCCCC1` stands 2.23. Turning to `Cc1cc(N)c([N+](=O)[O-])cc1C`, the “48 h IGC50 (-log10 mol/L)” value stood at 3.45. Under `Cc1cccc(N)c1` stands 2.72.

Turning to `COc1ccc([N+](=O)[O-])cc1`, the “48 h IGC50 (-log10 mol/L)” value turned out to be 3.54. Then `CCCCCCCCCCCC(C)O` (stereo unspecified), with 5.17. Under `NCCO` stands 1.11; under `C=C(C)C(=O)OCC(C)C`, 2.72. As to `Cc1ccc(C)c(N)c1`, the “48 h IGC50 (-log10 mol/L)” value came to 2.67.

For the compound `CCC=CCCC=CC=O`, the “48 h IGC50 (-log10 mol/L)” value stood at 4.34. Under `CCCCCCOc1ccc(O)cc1` stands 4.64; under `O=[N+]([O-])c1c(Cl)ncnc1Cl`, 5.12; under `C=CCOC(=O)CCCCCCCCC`, 3.48. Turning to `CCCOC(=O)/C=C/c1ccccc1`, the “48 h IGC50 (-log10 mol/L)” value amounted to 4.23.

On to `CC(=O)c1ccc[nH]1`, for which the “48 h IGC50 (-log10 mol/L)” value turned out to be 2.09. Turning to `CCCCCCC#CCCO`, the “48 h IGC50 (-log10 mol/L)” value was found to be 4.13.

Take `C=COC(=O)CCC`: the “48 h IGC50 (-log10 mol/L)” value worked out at 2.62. Under `C=CCOC(=O)CC` stands 2.12. For `C/C=C/C(=O)O`, the “48 h IGC50 (-log10 mol/L)” value was determined as 2.46. Under `CCCCCCC(=O)O` stands 2.89. In the case of `CCCCC#N`, the “48 h IGC50 (-log10 mol/L)” value was found to be 1.99. Under `CC(C)(C)c1ccc(O)c(N)c1` stands 3.37. Under `COc1cc(C#N)ccc1O` stands 2.97. Then `CCC/C=C/C(C)=O`, with 3.7. As for `CC(=O)c1cc[nH]c1`, the “48 h IGC50 (-log10 mol/L)” value is 2.15.

`Brc1ccccn1`: the “48 h IGC50 (-log10 mol/L)” value stood at 2.46.

In the case of `CCCCCCCC(O)CCCCC` (stereo unspecified), the “48 h IGC50 (-log10 mol/L)” value is 5.24. Under `CCNC(C)=O` stands 1.3; under `C[C@H](N=C=S)c1ccccc1`, 5.7; under `CCCC(CCC)C(=O)O`, 3.03. Then `C#CCSc1ccccc1`, with 3.54. As for `O=Cc1c(O)ccc2ccccc12`, the “48 h IGC50 (-log10 mol/L)” value turned out to be 4.32. Then `Oc1cc(O)cc(O)c1`, with 1.74. With `O=[N+]([O-])c1cc(Br)ccc1O`, the “48 h IGC50 (-log10 mol/L)” value stood at 4.87. Under `c1cncnc1` stands 1.25; under `O=C(OCCO)c1ccccc1O`, 2.92. Under `CCCCCCCCCC(=O)O` stands 3.51; under `CCCCCOC(C)=O`, 3.16.

As for `O=[N+]([O-])c1cc(I)c(O)c(I)c1`, the “48 h IGC50 (-log10 mol/L)” value is 4.81. Under `O=C(O)CCBr` stands 2.96. Under `O=Cc1ccc[nH]1` stands 2.52; under `CCc1ccco1`, 2.48; under `CCCCCCC(O)CCC` (stereo unspecified), 3.85. Under `CCOC(=O)CC#N` stands 1.77; under `O=C(O)CCC(=O)O`, 2.06. In the case of `CCCCOc1ccc(C=O)cc1`, the “48 h IGC50 (-log10 mol/L)” value was determined as 3.72.

Regarding `Oc1c(F)c(F)cc(F)c1F`, the “48 h IGC50 (-log10 mol/L)” value was 4.17. Under `CCOS(=O)OCC` stands 2.01; under `Oc1c(F)c(F)c(O)c(F)c1F`, 4.84; under `O=C(Oc1ccccc1)c1ccc(O)cc1`, 4.37. Then `CCCCOC(=O)CCCCCCC(=O)OCCCC`, with 4.66; and `O=Cc1cccs1`, with 2.95. Take `C=CCI`: the “48 h IGC50 (-log10 mol/L)” value stood at 3.8. Under `CCC(=O)Cc1ccccc1` stands 2.79.

Regarding `CCCI`, the “48 h IGC50 (-log10 mol/L)” value is 2.61. Then `CCC(O)Cc1ccccc1` (stereo unspecified), with 2.84; and `Cc1ccc2ccccc2n1`, with 3.47.

In the case of `N#Cc1cccc2ccccc12`, the “48 h IGC50 (-log10 mol/L)” value was determined as 3.69. As to `CNCC(O)CO` (stereo unspecified), the “48 h IGC50 (-log10 mol/L)” value turned out to be 1.47. Take `COc1cccc(Cl)c1`: the “48 h IGC50 (-log10 mol/L)” value was 3.29. On to `CC(C)CCO`, for which the “48 h IGC50 (-log10 mol/L)” value amounted to 1.96.

Regarding `CCCCCCC=O`, the “48 h IGC50 (-log10 mol/L)” value was found to be 3. Under `C=C(C)OC(C)=O` stands 2.51.

Consider `Oc1c(Cl)cccc1Cl`, for which the “48 h IGC50 (-log10 mol/L)” value is 3.73.

As for `Nc1c(Cl)cc(Cl)cc1[N+](=O)[O-]`, the “48 h IGC50 (-log10 mol/L)” value worked out at 4.26. Then `C=C(C)C(=O)OCC(CC)CCCC` (stereo unspecified), with 4.57; and `Oc1ccc(O)cc1`, with 3.47; and `Oc1c(Br)cc(Br)c(O)c1Br`, with 4.06. With `C=CC(C)(C)O`, the “48 h IGC50 (-log10 mol/L)” value turned out to be 1.61. Consider `CCC=C(C)C=O`, for which the “48 h IGC50 (-log10 mol/L)” value came to 2.98. Under `CC(O)C(c1ccccc1)c1ccccc1` (stereo unspecified) stands 3.75; under `O=C(CBr)c1cccs1`, 5.22; under `O=Cc1cc(I)cc(I)c1O`, 5.34. Under `NCc1ccccc1` stands 2.76; under `CCOC(=O)CCC(C)=O`, 1.6.

As for `Oc1cc(Cl)cc(Cl)c1`, the “48 h IGC50 (-log10 mol/L)” value worked out at 4.56. Turning to `COCC(C)N` (stereo unspecified), the “48 h IGC50 (-log10 mol/L)” value is 2.17.

For the compound `COc1cccc(C=O)c1O`, the “48 h IGC50 (-log10 mol/L)” value turned out to be 3.38. As for `Cc1ccncc1C`, the “48 h IGC50 (-log10 mol/L)” value was determined as 2.5.

Consider `O=C(O)c1cccc(Cl)c1`, for which the “48 h IGC50 (-log10 mol/L)” value was found to be 2.87. Then `NCCCCc1ccccc1`, with 3.62; and `CC/C=C/CC(=O)O`, with 2.78. As for `CCCC#CCO`, the “48 h IGC50 (-log10 mol/L)” value was found to be 2.62.

Regarding `CCOC(=O)C(C#N)c1ccccc1` (stereo unspecified), the “48 h IGC50 (-log10 mol/L)” value turned out to be 2.98. As to `C=CC(=O)OCCCCCCC`, the “48 h IGC50 (-log10 mol/L)” value amounted to 4.09. Then `Cc1cc(O)c([N+](=O)[O-])cc1Cl`, with 4.63. Then `CC(=O)C(Cl)C(C)=O`, with 4.44.
